Where two headings read alike, the source gives them in different places.
Tests used:
apotransferrin (apo-Tf) = biological target: T1, apotransferrin (apo-Tf) (Homo sapiens, UniProt P02787); assay: Apo-Tf fluorescence quenching binding study; details: for n1 (Number of Binding Sites), Apo-Tf / n2 (Hill Coefficient), Apo-Tf / Kd / fa (fraction of fluorophore accessible to the quencher), Apo-Tf / Ksv* (Stern–Volmer quenching constant), Apo-Tf / Ka (association binding constant), Apo-Tf / quenching effect on apo-Tf fluorescence peak: apo-Tf 1 µM; for n1 (Number of Binding Sites), Apo-Tf / n2 (Hill Coefficient), Apo-Tf / Kd / fa (fraction of fluorophore accessible to the quencher), Apo-Tf / Kq (bimolecular quenching constant), Apo-Tf / Ka (association binding constant), Apo-Tf: 298 K; for fa (fraction of fluorophore accessible to the quencher), Apo-Tf / Ksv* (Stern–Volmer quenching constant), Apo-Tf: compound 0–8 µM; for Ksv* (Stern–Volmer quenching constant), Apo-Tf: Tris-HCl pH 7.4, 298 K; for Kq (bimolecular quenching constant), Apo-Tf: from Ksv* with τ0 = 10^−8 s; for quenching effect on apo-Tf fluorescence peak: compound up to 8 µM
T1 construct: purchased Sigma-Aldrich Chemical Co. (Schnelldorf, Germany)
Method: (§1) Using a Jasco FP 6500 spectrofluorometer (Jasco, Tokyo, Japan) and quartz cells with a 1 cm path length, the fluorescence spectra of HSA and apo-Tf were recorded in the presence and absence of the examined substances. The 2.5 mL samples containing 2.5 µM HSA or 1 µM apo-Tf were titrated by adding 5 µL of the tested substance at a time, a volume that corresponded to a 1 µM increase in concentration. The concentration range used for these experiments varied from 0 to 8 µM. The relevant spectra were collected in the emission domains of 300–500 nm (HSA) and 305–500 nm (apo-Tf) after 3 min of continuous stirring at room temperature, using excitation wavelengths of 280 nm (HSA) and 295 nm (apo-Tf).
(§2) Experiments were conducted in a pH = 7.4 Tris-HCl buffer (5 mM Tris-HCl/50 mM NaCl for HSA and 5 mM Tris-HCl/50 mM NaCl/25 mM NaHCO3 for apo-Tf).
(§3) The following modified Stern–Volmer equation has been used to calculate the Stern–Volmer constant, which will be denoted as KSV* in order to differentiate it from the Stern–Volmer constant calculated for the DNA binding experiments:(5) F0/F0−F=1/faKsv*[Q]+1/fa where F0 and F are the fluorescence intensities in the absence and presence of the tested compounds, fa is the fraction of fluorophore accessible to the quencher (the tested compounds), [Q] is the quencher concentration, and KSV* (M^−1) is the Stern–Volmer constant; the plot of F0/(F0 − F) against 1/[Q] yields KSV as the slope and fa as the y intercept.
(§4) Subsequently, the bimolecular quenching rate constant was obtained by using Equation (6):(6) Ksv^*=Kqτ0
(§5) Kq (M^−1·s^−1) is the bimolecular quenching rate constant and τ0 is the fluorophore’s lifespan in the absence of the investigated chemicals (10^−8 s). The value of Kq can be used to assess whether the quenching phenomena have an underlying static or dynamic mechanism.
(§6) Using the following equation, the affinity constant (Ka) and the number of binding sites (n) have been calculated: (7) lgF0−F/F=lgKa+nlg[Q]
(§7) The binding affinity, Kd, can be calculated using the quadratic function below:(8) F0−F/F0−Fb=[P]t+[Q]+Kd−([P]t+[Q]+Kd)^2−4[P]t[Q]/2[P]t where F and F0 are the fluorescence intensities of the protein in the presence and absence of the quencher, respectively, Fb is the fluorescence of a fully bound protein–quencher, [P]t is the total concentration of the protein, and [Q] is the concentration of the added quencher. Each binding isotherm was plotted against the total quencher concentration in solution as a function of bound to free protein (F/F0).
(§8) The isotherms were then fitted using the nonlinear regression function below:(9) F/F0= F1+(F2−F1)Kdn/Kdn+[Q]^n where n represents the Hill coefficient, F1 and F2 are the horizontal and vertical asymptotes, respectively. The Kd in Equation (9) is derived from the quadratic binding function (Equation (8)).
(§9) Data were collected in triplicate, averaged, and expressed as mean value ± standard deviation (SD). All graph fitting models were defined and built using OriginPro® 2018.

[1] = test system: LoVo (human colorectal adenocarcinoma) cell line; assay: MTS cytotoxicity assay, LoVo cell line; assay type: cell-based; details: 48 h of incubation
Method: (§10) LoVo, MDA-MB-231 and HUVEC human cell lines were purchased from American Type Culture Collection (ATCC). Cells were routinely maintained in culture either in culture flasks or seeded in plates, using Dulbecco’s modified Eagle medium/nutrient mixture F-12 (DMEM:F12) medium supplemented with […], 10% fetal calf serum (Sigma Aldrich, St. Louis, MO, USA), 100 units/mL penicillin, 100 μg/mL streptomycin and incubated at 37 °C in 5% CO2 humidified atmosphere.
(§11) Cytotoxicity studies were performed in 96-well microtiter plates with flat bottoms (Falcon, Teterboro, NJ, USA) using the CellTiter 96 Aqueous One Solution Cell Proliferation Assay (Promega, Madison, WI, USA), an MTS-based colorimetric assay. Metabolically active cells have the ability to reduce MTS [3-(4,5-dimethylthiazol-2-yl)-5-(3-carboxymethoxyphenyl)-2-(4-sulfophenyl)-2H-tetrazolium, inner salt], a yellow tetrazolium salt, to a colored formazan that is soluble in the culture medium. Briefly, 15 × 10^3 cells per well were cultured in 100 µL culture medium. After 24 h, adherent cells were treated with different concentrations of the studied compounds, as well as adriamycin (Adr) and cisplatin (Cis-Pt), used as positive controls for 24 h and 48 h, respectively. Each well was then filled with 20 µL of reagent containing MTS and PES (phenazine ethosulfate, a cationic dye with excellent chemical stability that binds to MTS and produces a stable solution). The resulting formazan was determined using a Tecan GENios Spectrophotometer (Tecan US, Durham, NC, USA) by measuring the absorbance at λ = 492 nm after incubation for 4 h at 37 °C with moderate agitation every 15 min. The cytotoxicity tests were performed in triplicate, with results reported as mean values with standard deviations (SD). The cytotoxicity of DMSO was also investigated under the same conditions, and no harmful effect was found at doses less than 1%.
(§12) Data were expressed as cell viability by comparing with untreated cells considered 100% viable, using the following formula:(1) Cell viability (%)=absorbance of treated cells−absorbance of culture medium/absorbance of untreated cells−absorbance of culture medium

[2] = biological target: T2, human serum albumin (HSA) (Homo sapiens, UniProt P02768); assay: HSA fluorescence quenching binding study; details: for n1 (Number of Binding Sites), HSA / n2 (Hill Coefficient), HSA / Kd / fa (fraction of fluorophore accessible to the quencher), HSA / Kq (bimolecular quenching constant), HSA / Ka (association binding constant), HSA: 298 K; for fa (fraction of fluorophore accessible to the quencher), HSA / Ksv* (Stern–Volmer quenching constant), HSA: compound 0–8 µM; for Ksv* (Stern–Volmer quenching constant), HSA: Tris-HCl pH 7.4, 298 K; for Kq (bimolecular quenching constant), HSA: from Ksv* with τ0 = 10^−8 s
T2 construct: purchased Sigma-Aldrich Chemical Co. (Schnelldorf, Germany)
Method: as §1, §2, §3, §4, §5, §6, §7, §8, §9

[3] = test system: HUVEC (human umbilical vein endothelial cells); assay: MTS cytotoxicity assay, HUVEC normal cell line; assay type: cell-based; details: 24 h of incubation
Method: as §10, §11, §12

EB–DNA system (CT-DNA) = assay: Competitive binding assay with ethidium bromide (EB) through fluorescence spectroscopy; design: species or system calf; details: EB 2 µM, CT-DNA 10 µM, compound 0–40 µM
Method: The fluorescence spectra were recorded using 1.6 mL samples containing 10 µM CT-DNA, 2 µM EB, and increasing amounts (0–40 µM with an increment of 5 µM) of tested compounds; the samples were prepared by keeping the components in contact for 10 min at room temperature, under continuous stirring and in the dark. The excitation wavelength was 500 nm, and the spectra were recorded between the wavelengths of 520 and 800 nm. A Jasco FP 6500 fluorometer and quartz cells with a 1 cm route length were employed. The classical Stern–Volmer equation (Equation (3)) was used to interpret the obtained data:(3) F0/F=1+KSV·[Q] F0 and F are the fluorescence intensities of the EB–DNA samples in the absence and presence of the tested compounds, respectively; KSV is the Stern–Volmer constant, which was computed as the slope from the plot of F0/F vs. [Q], where [Q] is the chemical concentration.
The binding ratio was plotted against the logarithm of the concentration in comparison with a control sample exposed solely to DMSO. (4) y=A1+(A2−A1)×x^n/K50^n+x^n
For fitting data points, the modified Hill function with offset (Origin®) was used: where y represents the binding ratio (F/F0), x represents the concentration, A1 represents the minimum of y values, A2 represents the maximum of y values, K50 represents the concentration corresponding to 50% binding or the half maximum binding constant, and n represents the Hill coefficient.

[4] = read-out: Kd (dissociation constant), Apo-Tf
[5] = HSA 2.5 µM, read-out: Kd (dissociation constant), HSA

T1 sequence (P02787 20-698): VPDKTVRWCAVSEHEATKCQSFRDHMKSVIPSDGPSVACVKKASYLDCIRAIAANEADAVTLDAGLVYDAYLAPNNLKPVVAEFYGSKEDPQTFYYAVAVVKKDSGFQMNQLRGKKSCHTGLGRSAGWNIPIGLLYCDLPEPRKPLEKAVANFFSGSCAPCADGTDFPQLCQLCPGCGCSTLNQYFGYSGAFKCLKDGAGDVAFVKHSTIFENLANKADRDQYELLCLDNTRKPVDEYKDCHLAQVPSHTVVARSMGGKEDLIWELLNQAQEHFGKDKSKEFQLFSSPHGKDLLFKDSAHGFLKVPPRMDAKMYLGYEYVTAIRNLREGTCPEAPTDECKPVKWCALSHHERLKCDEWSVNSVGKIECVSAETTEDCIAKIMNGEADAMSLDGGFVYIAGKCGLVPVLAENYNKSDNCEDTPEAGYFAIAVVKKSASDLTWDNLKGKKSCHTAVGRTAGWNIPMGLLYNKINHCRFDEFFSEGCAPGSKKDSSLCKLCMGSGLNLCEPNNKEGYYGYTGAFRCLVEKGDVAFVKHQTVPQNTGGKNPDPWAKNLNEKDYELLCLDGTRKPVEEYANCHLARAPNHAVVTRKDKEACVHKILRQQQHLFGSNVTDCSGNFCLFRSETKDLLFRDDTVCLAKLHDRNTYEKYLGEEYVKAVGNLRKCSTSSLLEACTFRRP
T2 sequence (P02768 25-609): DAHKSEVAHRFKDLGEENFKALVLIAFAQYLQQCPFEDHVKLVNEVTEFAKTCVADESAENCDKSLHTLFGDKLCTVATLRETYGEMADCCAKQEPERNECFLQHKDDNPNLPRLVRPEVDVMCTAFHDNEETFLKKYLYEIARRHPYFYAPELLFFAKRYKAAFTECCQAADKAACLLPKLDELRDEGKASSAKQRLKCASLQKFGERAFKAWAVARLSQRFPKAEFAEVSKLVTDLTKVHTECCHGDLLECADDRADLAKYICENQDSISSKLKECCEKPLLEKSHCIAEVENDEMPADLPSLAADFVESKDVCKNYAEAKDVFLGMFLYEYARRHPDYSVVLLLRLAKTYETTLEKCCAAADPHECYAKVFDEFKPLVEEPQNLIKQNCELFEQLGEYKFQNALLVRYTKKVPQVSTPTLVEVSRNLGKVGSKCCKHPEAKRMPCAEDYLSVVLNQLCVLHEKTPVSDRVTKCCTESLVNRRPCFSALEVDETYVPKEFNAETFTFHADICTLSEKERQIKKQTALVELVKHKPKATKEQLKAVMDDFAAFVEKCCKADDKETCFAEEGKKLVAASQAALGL

Molecule | n1 (Number of Binding Sites), Apo-Tf (apotransferrin (apo-Tf)) | n2 (Hill Coefficient), Apo-Tf (apotransferrin (apo-Tf)) | Kd (apotransferrin (apo-Tf); [4]) [µM] | fa (fraction of fluorophore accessible to the quencher), Apo-Tf (apotransferrin (apo-Tf)) | Ksv* (Stern–Volmer quenching constant), Apo-Tf (apotransferrin (apo-Tf)) | Kq (bimolecular quenching constant), Apo-Tf (apotransferrin (apo-Tf)) [M⁻¹ s⁻¹] | IC50 (μM) LoVo [1] | n1 (Number of Binding Sites), HSA ([2]; HSA 2.5 µM) | n2 (Hill Coefficient), HSA ([2]; HSA 2.5 µM) | Kd [2, 5] [µM] | fa (fraction of fluorophore accessible to the quencher), HSA ([2]; HSA 2.5 µM) | Ksv* (Stern–Volmer quenching constant), HSA ([2]; HSA 2.5 µM) | Kq (bimolecular quenching constant), HSA [2] [M⁻¹ s⁻¹] | EB Displacement Assay K50 (half maximum binding constant) (EB–DNA system (CT-DNA)) [µM] | KSV, Stern–Volmer quenching constant (EB–DNA) (EB–DNA system (CT-DNA)) | Ka (association binding constant), Apo-Tf (apotransferrin (apo-Tf)) | quenching effect on apo-Tf fluorescence peak (apotransferrin (apo-Tf)) [%] | IC50 [1] [µM] | Ka (association binding constant), HSA ([2]; HSA 2.5 µM) | IC50 [3] [µM] | also measured
CCn1cc(C(=O)O)c(=O)c2ccc(C)nc21 [Nalidixic acid] | 0.79 ± 0.02 | 1.55 ± 0.37 | 6.55 ± 2.11 | 0.48 ± 0.03 | (1.02 ± 0.09) × 10^5 M^−1 | 1.02e+13 | not toxic | 1.03 ± 0.01 | 1.33 ± 0.29 | 5.69 ± 1.44 | 1.06 ± 0.02 | (1.25 ± 0.06) × 10^5 M^−1 | 1.25e+13 | 50.41 ± 9.60 | 9.87 ± 0.11 M^−1 (×10^3) |  |  |  |  |  | Kd (apotransferrin (apo-Tf); read-out: Ka (association binding constant), Apo-Tf): 323 µM; IC50 ([1]; Homo sapiens): > 200 µM; Kd ([2]; HSA 2.5 µM, read-out: Ka (association binding constant), HSA): 4.57 µM; IC50 ([3]; Homo sapiens): > 200 µM
CCn1cc(C(=O)[O-])c(=O)c2ccc(C)nc21.CCn1cc(C(=O)[O-])c(=O)c2ccc(C)nc21.O.O.O.O.[OH-].[Sm+3] [Sm(nal)2, Sm(C12H11N2O3)2(OH)(H2O)·3H2O] | 1.01 ± 0.05 | 1.71 ± 0.31 | 6.16 ± 1.27 | 0.79 ± 0.02 | (1.16 ± 0.06) × 10^5 M^−1 | 1.16e+13 |  | 1.08 ± 0.01 | 1.34 ± 0.09 | 3.6 ± 0.11 | 1.05 ± 0.02 | (2.50 ± 0.12) × 10^5 M^−1 | 2.5e+13 | 31.35 ± 4.21 | 10.24 ± 0.22 M^−1 (×10^3) | (10.17 ± 6.14) × 10^4 M^−1 | 35 | 92.4 ± 16 | (8.25 ± 1.62) × 10^5 M^−1 | > 200 | quenching effect on HSA fluorescence peak ([2]; HSA 2.5 µM, compound up to 8 µM): ~ 73%
CCn1cc(C(=O)[O-])c(=O)c2ccc(C)nc21.CCn1cc(C(=O)[O-])c(=O)c2ccc(C)nc21.O.[OH-].[Tb+3] [Tb(nal)2, Tb(C12H11N2O3)2(OH)(H2O)·1.5H2O] | 0.71 ± 0.02 |  | 8.01 ± 4.3 | 0.65 ± 0.02 | (2.23 ± 0.15) × 10^5 M^−1 | 2.23e+13 | not toxic | 1.12 ± 0.02 | 1.52 ± 0.09 | 3.99 ± 0.14 | 1.13 ± 0.02 | (1.92 ± 0.08) × 10^5 M^−1 | 1.92e+13 | 34.69 ± 11.18 | 9.14 ± 0.16 M^−1 (×10^3) | (0.32 ± 0.08) × 10^4 M^−1 |  | > 200 | (11.52 ± 2.87) × 10^5 M^−1 | > 200 | 
Eu(C12H11N2O3)3(H2O)2·2.5H2O [Eu(nal)3] | 0.84 ± 0.03 | 1.58 ± 0.23 | 3.85 ± 0.29 | 0.80 ± 0.02 | (2.21 ± 0.13) × 10^5 M^−1 | 2.21e+13 |  | 1.13 ± 0.00 | 1.17 ± 0.27 | 2.67 ± 0.21 | 1.13 ± 0.01 | (2.89 ± 0.11) × 10^5 M^−1 | 2.89e+13 | 30.96 ± 10.85 | 9.62 ± 0.10 M^−1 (×10^3) | (2.25 ± 1.01) × 10^4 M^−1 | 48 | 26.9 ± 5.72 | (21.59 ± 2.04) × 10^5 M^−1 | > 200 | 

Reference: publication PMC9412414, “A Study on Repositioning Nalidixic Acid via Lanthanide Complexation: Synthesis, Characterization, Cytotoxicity and DNA/Protein Binding Studies” (Pharmaceuticals, 2022)
